According to ChEMBL document CHEMBL3792318, “Rapid, Structure-Based Exploration of Pipecolic Acid Amides as Novel Selective Antagonists of the FK506-Binding Protein 51” (J Med Chem, 2016):
Activity calls are given as the source filed them. The rule behind the calls is not given here.

Key:
[1] = target: T1, Peptidyl-prolyl cis-trans isomerase FKBP5 (Homo sapiens, UniProt Q13451); assay: (§1) Binding affinity to FKBP51 FK506-binding domain (1 to 140 amino acids) (unknown origin) incubated for 30 mins using fluorescein-conjugated 2-(5-((2-(3-((R)-3-(3,4-dimethoxyphenyl)-1-((S)-1-(3,3-dimethyl-2-oxopentanoyl)piperidine-2-carbonyloxy)propyl)phenoxy)acetamido)methyl)-6-hydroxy-3-oxo-3H-xanthen-9-yl)benzoic acid by competitive fluorescence polarization assay
T1 sequence (Q13451 whole entry): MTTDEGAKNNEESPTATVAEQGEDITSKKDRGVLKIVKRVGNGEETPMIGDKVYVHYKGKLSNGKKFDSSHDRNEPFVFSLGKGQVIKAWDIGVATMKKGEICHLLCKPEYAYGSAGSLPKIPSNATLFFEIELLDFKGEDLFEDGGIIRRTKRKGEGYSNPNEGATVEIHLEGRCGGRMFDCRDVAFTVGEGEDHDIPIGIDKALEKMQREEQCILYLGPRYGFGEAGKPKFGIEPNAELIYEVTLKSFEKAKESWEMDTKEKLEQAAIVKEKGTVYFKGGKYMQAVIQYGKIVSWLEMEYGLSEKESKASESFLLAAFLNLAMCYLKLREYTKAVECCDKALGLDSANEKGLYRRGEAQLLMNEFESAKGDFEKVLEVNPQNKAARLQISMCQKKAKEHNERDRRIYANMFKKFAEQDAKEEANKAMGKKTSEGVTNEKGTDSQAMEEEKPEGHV

[2] = target: Peptidyl-prolyl cis-trans isomerase FKBP1A (Homo sapiens, UniProt P62942); assay: as §1, with “human FKBP12 FK1” for “FKBP51 FK506-binding”, “domain” for “domain (1 to 140 amino acids) (unknown origin)”
[3] = target: T2, Peptidyl-prolyl cis-trans isomerase FKBP4 (Homo sapiens) (UniProt Q02790); assay: as §1, with “FKBP52” for “FKBP51 FK506-binding domain”, “origin) up to 500 uM” for “origin)”
T2 sequence (whole entry): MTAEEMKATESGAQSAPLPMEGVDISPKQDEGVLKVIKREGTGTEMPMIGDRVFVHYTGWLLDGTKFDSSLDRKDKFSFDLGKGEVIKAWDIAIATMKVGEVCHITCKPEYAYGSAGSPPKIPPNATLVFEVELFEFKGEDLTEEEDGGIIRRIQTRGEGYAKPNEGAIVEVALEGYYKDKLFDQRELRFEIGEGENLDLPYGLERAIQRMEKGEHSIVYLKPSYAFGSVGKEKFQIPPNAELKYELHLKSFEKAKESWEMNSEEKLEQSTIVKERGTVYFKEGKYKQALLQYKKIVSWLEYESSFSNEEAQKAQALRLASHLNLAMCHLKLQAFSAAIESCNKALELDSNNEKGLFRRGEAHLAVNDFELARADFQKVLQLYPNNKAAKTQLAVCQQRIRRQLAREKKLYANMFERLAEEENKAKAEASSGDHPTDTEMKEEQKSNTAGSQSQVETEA

[4] = target: T1, Peptidyl-prolyl cis-trans isomerase FKBP5
Description: Binding affinity to FKBP51 (unknown origin) by competitive fluorescence polarization assay

Chain of Peptidyl-prolyl cis-trans isomerase FKBP1A (P62942 whole entry, the tested form may be a part): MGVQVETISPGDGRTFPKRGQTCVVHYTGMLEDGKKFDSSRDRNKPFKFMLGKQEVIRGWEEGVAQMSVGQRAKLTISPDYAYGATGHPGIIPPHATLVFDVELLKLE

Structure (SMILES) | Ki [1] | Ki [2] | inhibition [3] | Ki [4]
COc1cc([C@@H](C(=O)N2CCCC[C@H]2C(=O)N[C@@H](C(N)=O)C(C)C)C2CCCCC2)cc(OC)c1OC | 5 µM | 39.7 µM | – | –
CCNC(=O)[C@@H]1CCCCN1C(=O)[C@H](c1cc(OC)c(OC)c(OC)c1)C1CCCCC1 | 55 µM | – | – | –
COc1cc([C@@H](C(=O)N2CCCC[C@H]2C(=O)NCCC(N)=O)C2CCCCC2)cc(OC)c1OC | 5.6 µM | 49.2 µM | – | –
COc1cc([C@@H](C(=O)N2CCCC[C@H]2C(=O)N[C@@H](C(N)=O)c2ccccc2)C2CCCCC2)cc(OC)c1OC | – | 12.4 µM | – | –
COc1cc([C@@H](C(=O)N2CCCC[C@H]2C(=O)N[C@@H](CC(C)C)C(N)=O)C2CCCCC2)cc(OC)c1OC | 8.7 µM | 6.6 µM | – | –
COc1cc([C@@H](C(=O)N2CCCC[C@H]2C(=O)N[C@H](CCO)C(N)=O)C2CCCCC2)cc(OC)c1OC | – | 1.2 µM | – | –
COc1cc([C@@H](C(=O)N2CCCC[C@H]2C(=O)N[C@H](C(N)=O)c2ccccc2)C2CCCCC2)cc(OC)c1OC | – | 7.5 µM | – | –
COc1cc([C@@H](C(=O)N2CCCC[C@H]2C(=O)N[C@@H](CC2CCCCC2)C(N)=O)C2CCCCC2)cc(OC)c1OC | 17.8 µM | 6.6 µM | – | –
COc1cc([C@@H](C(=O)N2CCCC[C@H]2C(=O)NC2(C(N)=O)CCC2)C2CCCCC2)cc(OC)c1OC | 4.9 µM | 23.4 µM | – | –
COc1cc([C@@H](C(=O)N2CCCC[C@H]2C(=O)N[C@@H](CCC(N)=O)C(N)=O)C2CCCCC2)cc(OC)c1OC | 345 µM | – | – | –
COc1cc([C@@H](C(=O)N2CCCC[C@H]2C(=O)NCCCC(N)=O)C2CCCCC2)cc(OC)c1OC | 5.7 µM | 22.3 µM | – | –
COc1cc([C@@H](C(=O)N2CCCC[C@H]2C(=O)N[C@@H](CCC2CCCCC2)C(N)=O)C2CCCCC2)cc(OC)c1OC | 12 µM | 22.5 µM | – | –
COc1cc([C@@H](C(=O)N2CCCC[C@H]2C(=O)N[C@@H](CCc2ccccc2)C(N)=O)C2CCCCC2)cc(OC)c1OC | 9.1 µM | 30.1 µM | – | –
COc1cc([C@@H](C(=O)N2CCCC[C@H]2C(=O)N[C@H](C(N)=O)C(C)C)C2CCCCC2)cc(OC)c1OC | 12.6 µM | 11.5 µM | – | –
CC[C@@H](NC(=O)[C@@H]1CCCCN1C(=O)[C@H](c1cc(OC)c(OC)c(OC)c1)C1CCCCC1)C(N)=O | 4.5 µM | 6 µM | – | –
COc1cc([C@@H](C(=O)N2CCCC[C@H]2C(=O)N[C@@H](Cc2ccccc2)C(N)=O)C2CCCCC2)cc(OC)c1OC | 6.5 µM | 10.9 µM | – | –
COc1cc([C@@H](C(=O)N2CCCC[C@H]2C(=O)N[C@@H](CO)C(N)=O)C2CCCCC2)cc(OC)c1OC | 62.9 µM | – | – | –
COc1cc([C@@H](C(=O)N2CCCC[C@H]2C(=O)NCC(N)=O)C2CCCCC2)cc(OC)c1OC | 36.7 µM | > 300 µM | – | –
COc1cc([C@@H](C(=O)N2CCCC[C@H]2C(=O)N[C@H](C(N)=O)C2CCCCC2)C2CCCCC2)cc(OC)c1OC | 4.3 µM | 12.8 µM | – | –
COc1cc([C@@H](C(=O)N2CCCC[C@H]2C(=O)N[C@@H](CCO)C(N)=O)C2CCCCC2)cc(OC)c1OC | – | 317 µM | – | –
COc1cc([C@@H](C(=O)N2CCCC[C@H]2C(=O)N[C@H](C)C(N)=O)C2CCCCC2)cc(OC)c1OC | 10 µM | 71.1 µM | – | –
C=CC[C@@H]1/C=C(\C)C[C@H](C)C[C@H](OC)[C@H]2O[C@@](O)(C(=O)C(=O)N3CCCC[C@H]3C(=O)O[C@H](/C(C)=C/[C@@H]3CC[C@@H](O)[C@H](OC)C3)[C@H](C)[C@@H](O)CC1=O)[C@H](C)C[C@@H]2OC [TACROLIMUS ANHYDROUS] | – | – | – | 0.079 µM
COc1cc([C@@H](C(=O)N2CCCC[C@H]2C(=O)N[C@@H](C)C(N)=O)C2CCCCC2)cc(OC)c1OC | 17.1 µM | 30.7 µM | – | –
COc1cc([C@@H](C(=O)N2CCCC[C@H]2C(=O)NC2(C(N)=O)CC2)C2CCCCC2)cc(OC)c1OC | 19.5 µM | 50.3 µM | – | –
COc1cc([C@@H](C(=O)N2CCCC[C@H]2C(=O)N[C@@H](Cc2cnc[nH]2)C(N)=O)C2CCCCC2)cc(OC)c1OC | 13.4 µM | 101 µM | – | –
COc1cc([C@@H](C(=O)N2CCCC[C@H]2C(=O)NCCCCC(N)=O)C2CCCCC2)cc(OC)c1OC | 3.9 µM | 4.2 µM | – | –
CC[C@H](C)[C@H](NC(=O)[C@@H]1CCCCN1C(=O)[C@H](c1cc(OC)c(OC)c(OC)c1)C1CCCCC1)C(N)=O | 7.1 µM | 12.1 µM | – | –

Results, then the molecule that gave them:

Ki [1] | Ki [2] | inhibition [3] | Ki [4] | Structure (SMILES)
0.14 µM | 3.8 µM | inactive | – | COc1cc([C@@H](C(=O)N2CCCC[C@H]2C(=O)NC2(C(N)=O)CCCC2)C2CCCCC2)cc(OC)c1OC
1.4 µM | 5.6 µM | – | – | COc1cc([C@@H](C(=O)N2CCCC[C@H]2C(=O)N[C@H](Cc2ccccc2)C(N)=O)C2CCCCC2)cc(OC)c1OC
2.8 µM | 46.9 µM | – | – | COc1cc([C@@H](C(=O)N2CCCC[C@H]2C(=O)N[C@H](CO)C(N)=O)C2CCCCC2)cc(OC)c1OC
1.9 µM | 4.3 µM | – | – | COc1cc([C@@H](C(=O)N2CCCC[C@H]2C(=O)NC2(C(N)=O)CCCCC2)C2CCCCC2)cc(OC)c1OC
3.2 µM | 8.7 µM | – | – | CC[C@@H](C)[C@@H](NC(=O)[C@@H]1CCCCN1C(=O)[C@H](c1cc(OC)c(OC)c(OC)c1)C1CCCCC1)C(N)=O
0.8 µM | 2 µM | – | – | COc1cc([C@@H](C(=O)N2CCCC[C@H]2C(=O)NC2(C(=O)NCC(N)=O)CCCC2)C2CCCCC2)cc(OC)c1OC
0.043 µM | – | – | – | COc1ccc(CC[C@@H](NC(=O)[C@@H]2CCCCN2C(=O)[C@H](c2cc(OC)c(OC)c(OC)c2)C2CCCCC2)c2cccc(OCC(=O)O)c2)cc1OC
3.8 µM | 3.2 µM | – | – | COc1cc([C@@H](C(=O)N2CCCC[C@H]2C(=O)NC(C)(C)CC(N)=O)C2CCCCC2)cc(OC)c1OC
1.8 µM | 3 µM | – | – | COc1cc([C@@H](C(=O)N2CCCC[C@H]2C(=O)NC2(C(N)=O)CCOCC2)C2CCCCC2)cc(OC)c1OC
3.6 µM | 51.9 µM | – | – | CC[C@H](NC(=O)[C@@H]1CCCCN1C(=O)[C@H](c1cc(OC)c(OC)c(OC)c1)C1CCCCC1)C(N)=O
3.8 µM | 26.9 µM | – | – | COc1cc([C@@H](C(=O)N2CCCC[C@H]2C(=O)N[C@H](Cc2cnc[nH]2)C(N)=O)C2CCCCC2)cc(OC)c1OC
3.4 µM | 120 µM | – | – | COc1cc([C@@H](C(=O)N2CCCC[C@H]2C(=O)N[C@H](CCC(N)=O)C(N)=O)C2CCCCC2)cc(OC)c1OC
2.2 µM | 25.1 µM | – | – | COc1cc([C@@H](C(=O)N2CCCC[C@H]2C(=O)NC(C)(C)C(N)=O)C2CCCCC2)cc(OC)c1OC
